ChEMBL document CHEMBL1909046, “DrugMatrix in vitro pharmacology data”
pIC50, pKi: −log10 of the molar value.

Tests used:
Melanocortin receptor 4 = Melanocortin receptor 4 (Homo sapiens, UniProt P32245); type: cell membranes, HEK293, Membrane; details: hek293; also: in other assays of this panel Not Active means under 50% inhibition at 10 µM
[1] = molecular target: T1, Nitric oxide synthase, inducible (Mus musculus, UniProt P29477); design: species or system Escherichia coli;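 also: inhibition of iNOS enzyme activity measured with L-arginine as substrate; in other assays of this panel Not Active means under 50% inhibition at 10 µM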
T1 sequence (P29477 whole entry): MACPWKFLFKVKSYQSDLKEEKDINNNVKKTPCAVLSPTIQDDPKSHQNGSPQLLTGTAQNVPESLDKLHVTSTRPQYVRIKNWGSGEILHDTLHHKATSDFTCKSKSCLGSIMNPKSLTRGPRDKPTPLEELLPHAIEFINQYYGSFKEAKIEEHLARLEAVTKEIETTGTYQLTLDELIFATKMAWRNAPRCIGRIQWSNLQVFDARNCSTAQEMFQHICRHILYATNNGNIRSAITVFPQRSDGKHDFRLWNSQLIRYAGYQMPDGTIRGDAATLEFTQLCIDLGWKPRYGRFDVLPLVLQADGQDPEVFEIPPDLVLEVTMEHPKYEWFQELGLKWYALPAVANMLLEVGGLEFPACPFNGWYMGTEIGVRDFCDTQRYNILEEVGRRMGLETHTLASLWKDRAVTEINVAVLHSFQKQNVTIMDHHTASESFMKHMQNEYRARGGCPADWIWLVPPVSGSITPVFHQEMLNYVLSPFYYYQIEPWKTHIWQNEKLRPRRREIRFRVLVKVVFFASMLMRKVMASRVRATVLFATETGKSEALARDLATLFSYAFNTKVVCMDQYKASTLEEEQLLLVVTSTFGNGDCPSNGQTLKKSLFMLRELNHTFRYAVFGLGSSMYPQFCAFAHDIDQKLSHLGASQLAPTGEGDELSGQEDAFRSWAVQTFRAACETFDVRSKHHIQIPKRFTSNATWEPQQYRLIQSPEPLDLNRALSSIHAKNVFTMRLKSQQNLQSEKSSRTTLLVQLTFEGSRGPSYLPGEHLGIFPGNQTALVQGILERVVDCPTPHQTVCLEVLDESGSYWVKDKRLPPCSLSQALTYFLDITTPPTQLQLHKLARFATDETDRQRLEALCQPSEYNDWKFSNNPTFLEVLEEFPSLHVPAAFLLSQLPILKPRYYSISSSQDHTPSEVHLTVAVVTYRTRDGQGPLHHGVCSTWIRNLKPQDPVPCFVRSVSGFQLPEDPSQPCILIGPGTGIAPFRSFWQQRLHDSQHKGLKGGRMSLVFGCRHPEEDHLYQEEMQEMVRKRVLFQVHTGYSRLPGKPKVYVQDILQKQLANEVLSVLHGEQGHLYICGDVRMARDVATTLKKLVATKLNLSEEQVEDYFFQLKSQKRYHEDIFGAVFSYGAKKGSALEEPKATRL

[2] = molecular target: Beta-3 adrenergic receptor (Homo sapiens, UniProt P13945); assay: DRUGMATRIX: Adrenergic beta3 radioligand binding (ligand: [125I] Cyanopindolol); type: cell membranes, HEK293, Membrane; details: hek293; Not Active = under 50% inhibition at 10 µM
Cytochrome P450 2C9 = Cytochrome P450 2C9 (Homo sapiens, UniProt P11712); details: bti-tn-5b1-4; also: in other assays of this panel Not Active means under 50% inhibition at 10 µM
[3] = molecular target: Sodium-dependent noradrenaline transporter (Homo sapiens, UniProt P23975); assay: DRUGMATRIX: Norepinephrine Transporter radioligand binding (ligand: [125I] RTI-55); type: cell membranes, MDCK, Membrane; details: Not Active = under 50% inhibition at 10 µM; for IC50: mdck
[4] = molecular target: C-C chemokine receptor type 2 (Homo sapiens, UniProt P41597); type: cell membranes, Membrane; details: cho-k1; also: in other assays of this panel Not Active means under 50% inhibition at 10 µM
[5] = DRUGMATRIX: ATPase, Na+/K+ enzyme inhibition (substrate: ATP); type: tissue-based, Sus scrofa, Heart; details: Not Active = under 50% inhibition at 10 µM

Sequence of Melanocortin receptor 4 (P32245 whole entry): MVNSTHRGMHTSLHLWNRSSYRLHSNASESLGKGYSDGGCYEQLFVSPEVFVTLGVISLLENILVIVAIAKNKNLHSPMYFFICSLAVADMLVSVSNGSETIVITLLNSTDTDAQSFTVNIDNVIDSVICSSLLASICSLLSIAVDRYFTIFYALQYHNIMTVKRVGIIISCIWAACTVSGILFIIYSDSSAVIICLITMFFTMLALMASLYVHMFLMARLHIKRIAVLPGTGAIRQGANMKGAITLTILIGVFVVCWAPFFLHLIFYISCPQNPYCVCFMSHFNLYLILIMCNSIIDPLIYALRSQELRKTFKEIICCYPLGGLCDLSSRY
Sequence of C-C chemokine receptor type 2 (P41597 whole entry): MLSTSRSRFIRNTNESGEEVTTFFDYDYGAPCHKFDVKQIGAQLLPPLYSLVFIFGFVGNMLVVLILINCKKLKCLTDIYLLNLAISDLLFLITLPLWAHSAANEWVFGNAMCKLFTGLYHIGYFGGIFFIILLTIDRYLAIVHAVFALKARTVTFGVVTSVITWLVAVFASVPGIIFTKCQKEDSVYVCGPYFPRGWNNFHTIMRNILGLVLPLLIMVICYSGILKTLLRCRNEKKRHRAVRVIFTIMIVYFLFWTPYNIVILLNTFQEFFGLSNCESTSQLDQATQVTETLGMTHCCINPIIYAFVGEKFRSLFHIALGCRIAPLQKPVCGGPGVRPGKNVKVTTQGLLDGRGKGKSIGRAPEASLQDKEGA
Sequence of Cytochrome P450 2C9 (P11712 whole entry): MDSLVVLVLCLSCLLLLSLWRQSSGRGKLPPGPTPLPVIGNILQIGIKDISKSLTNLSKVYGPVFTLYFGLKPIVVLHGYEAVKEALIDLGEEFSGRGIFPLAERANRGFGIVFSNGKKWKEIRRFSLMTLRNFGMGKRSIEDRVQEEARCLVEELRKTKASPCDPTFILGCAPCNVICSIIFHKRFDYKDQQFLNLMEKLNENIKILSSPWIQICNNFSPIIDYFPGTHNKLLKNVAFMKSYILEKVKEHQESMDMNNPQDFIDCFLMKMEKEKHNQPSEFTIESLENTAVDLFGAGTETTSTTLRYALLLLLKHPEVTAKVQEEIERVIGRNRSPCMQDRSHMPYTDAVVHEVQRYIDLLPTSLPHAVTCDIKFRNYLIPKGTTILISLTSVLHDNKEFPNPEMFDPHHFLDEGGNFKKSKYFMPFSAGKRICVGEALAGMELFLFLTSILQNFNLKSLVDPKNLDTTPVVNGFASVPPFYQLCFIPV
Sequence of Sodium-dependent noradrenaline transporter (P23975 whole entry): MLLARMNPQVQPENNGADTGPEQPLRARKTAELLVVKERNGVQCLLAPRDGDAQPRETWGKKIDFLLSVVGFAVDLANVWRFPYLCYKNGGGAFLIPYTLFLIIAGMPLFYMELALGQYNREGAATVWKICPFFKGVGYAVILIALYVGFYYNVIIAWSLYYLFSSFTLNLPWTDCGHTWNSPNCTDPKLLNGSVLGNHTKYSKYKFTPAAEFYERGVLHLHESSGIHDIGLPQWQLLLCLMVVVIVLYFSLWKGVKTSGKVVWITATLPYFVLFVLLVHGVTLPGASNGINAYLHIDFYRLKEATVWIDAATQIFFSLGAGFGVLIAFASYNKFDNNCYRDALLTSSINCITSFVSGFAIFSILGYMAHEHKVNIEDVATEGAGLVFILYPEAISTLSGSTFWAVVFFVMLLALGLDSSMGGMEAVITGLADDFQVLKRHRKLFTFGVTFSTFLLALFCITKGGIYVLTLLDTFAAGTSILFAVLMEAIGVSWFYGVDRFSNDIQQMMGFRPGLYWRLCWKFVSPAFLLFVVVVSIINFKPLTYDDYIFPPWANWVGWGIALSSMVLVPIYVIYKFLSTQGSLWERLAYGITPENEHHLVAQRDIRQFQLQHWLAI
Sequence of Beta-3 adrenergic receptor (P13945 whole entry): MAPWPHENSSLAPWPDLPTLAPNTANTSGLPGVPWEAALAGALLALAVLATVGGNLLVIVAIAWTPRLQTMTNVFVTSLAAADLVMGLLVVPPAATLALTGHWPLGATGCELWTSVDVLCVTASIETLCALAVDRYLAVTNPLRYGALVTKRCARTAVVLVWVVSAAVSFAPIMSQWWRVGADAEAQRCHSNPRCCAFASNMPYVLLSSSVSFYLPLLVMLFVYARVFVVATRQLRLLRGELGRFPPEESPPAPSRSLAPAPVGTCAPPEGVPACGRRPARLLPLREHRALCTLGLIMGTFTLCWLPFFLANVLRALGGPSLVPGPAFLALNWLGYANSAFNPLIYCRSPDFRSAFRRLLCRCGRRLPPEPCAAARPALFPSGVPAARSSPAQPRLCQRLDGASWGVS

Structure (SMILES)	IC50 (Melanocortin receptor 4)	IC50 [1]	IC50 [2]	IC50 (Cytochrome P450 2C9)	Ki (Cytochrome P450 2C9)	IC50 [3]	IC50 [4]	IC50 [5]	Ki [5]	pIC50 ([3]; read-out: IC50)	pKi ([3]; read-out: Ki)
Nc1cc(N2CCCCC2)nc(N)[n+]1[O-] [MINOXIDIL]	Not Active	Not Active	Not Active	Not Active	Not Active	Not Active	Not Active	Not Active	Not Active	–	–
CO[C@H]1/C=C/O[C@@]2(C)Oc3c(C)c(O)c4c(O)c(c(/C=N/N5CCN(C6CCCC6)CC5)c(O)c4c3C2=O)NC(=O)/C(C)=C\C=C\[C@H](C)[C@H](O)[C@@H](C)[C@@H](O)[C@@H](C)[C@H](OC(C)=O)[C@@H]1C [RIFAPENTINE]	Not Active	Not Active	Not Active	Not Active	Not Active	Not Active	Not Active	Not Active	Not Active	–	–
CCCCOc1cc(CC2CNC(=O)N2)ccc1OC (centres undefined) [RO-201724]	Not Active	Not Active	Not Active	Not Active	Not Active	Not Active	Not Active	Not Active	Not Active	–	–
CC[C@@H](C(=O)[C@@H](C)[C@@H](O)[C@H](C)[C@@H]1O[C@@H]([C@@H](CC)C(=O)O)CC[C@@H]1C)[C@H]1O[C@]2(C=C[C@@H](O)[C@]3(CC[C@@](C)([C@H]4CC[C@](O)(CC)[C@H](C)O4)O3)O2)[C@H](C)C[C@@H]1C [SALINOMYCIN]	Not Active	Not Active	Not Active	Not Active	Not Active	Not Active	Not Active	Not Active	Not Active	–	–
O=C(Oc1ccccc1C(=O)O)c1ccccc1O [SALSALATE]	Not Active	Not Active	Not Active	Not Active	Not Active	Not Active	Not Active	Not Active	Not Active	–	–
O=C(O)c1cn(-c2ccc(F)cc2)c2cc(N3CCNCC3)c(F)cc2c1=O [SARAFLOXACIN]	Not Active	Not Active	Not Active	Not Active	Not Active	Not Active	Not Active	Not Active	Not Active	–	–
CC(C)NCC(O)c1ccc(NS(C)(=O)=O)cc1 (centres undefined) [SOTALOL]	Not Active	Not Active	Not Active	Not Active	Not Active	Not Active	Not Active	Not Active	Not Active	–	–
O.O.O.O.O.O.[Cl-].[Cl-].[Sr+2] [STRONTIUM CHLORIDE HEXAHYDRATE]	Not Active	Not Active	Not Active	Not Active	Not Active	Not Active	Not Active	Not Active	Not Active	–	–
O=C1C(CC[S+]([O-])c2ccccc2)C(=O)N(c2ccccc2)N1c1ccccc1 (centres undefined) [SULFINPYRAZONE]	Not Active	Not Active	Not Active	Not Active	Not Active	Not Active	Not Active	Not Active	Not Active	–	–
COc1cc2nc(N3CCN(C(=O)C4CCCO4)CC3)nc(N)c2cc1OC (centres undefined) [TERAZOSIN]	Not Active	Not Active	Not Active	Not Active	Not Active	Not Active	Not Active	Not Active	Not Active	–	–
CN(C/C=C/C#CC(C)(C)C)Cc1cccc2ccccc12 [TERBINAFINE]	Not Active	Not Active	Not Active	Not Active	Not Active	–	Not Active	Not Active	Not Active	5.38	5.39
CS(=O)(=O)c1ccc([C@@H](O)[C@@H](CO)NC(=O)C(Cl)Cl)cc1 [THIAMPHENICOL]	Not Active	Not Active	Not Active	Not Active	Not Active	Not Active	Not Active	Not Active	Not Active	–	–
